Consider one molecule from patent US20060100264A1, “3,3'-Diindolylmethane immune activating compositions” (priority 2004, published 2006).

One assay relates to IFNγ receptor (IFNGR1). Kind of assay: IFNGR1 mRNA expression in DIM-treated MCF-7 cells (cDNA microarray, Northern blot, quantitative RT-PCR). It is filed as cell-based, human. Here is the method: (§1) Immune response activating effects of the DIM analogs are examined with cell-based assays for cytokine and cytokine receptor expression. […] We also used a sensitive sandwich ELISA assay to examine levels of IFNγ in medium from confluent cultures of MCF-7 cells that were treated for up to 3 days. DIM derivatives confirmed to have immune response activating activity in our reporter and ELISA assays are subsequently screened in a whole animal cytokine production and Y. enterocolitica infection studies, as described below in Examples VIII and IX.
(§2) An initial cDNA gene expression microarray screen of human breast cancer MCF-7 cells treated with DIM, followed by confirmation of results using Northern blots and quantitative RT-PCR, established the transcriptional activation of IFNγ, IFNγ receptor (IFNGR1), oligoadenylate-synthase (OAS) family member protein 69 (p69-OAS), and interferon-inducible protein 56 (p56), a protein closely related to OAS. […] Maximum induction for IFNγ, IFNGR1, p69-OAS and p56 were 4.6, 3.8, 3.2 and 4.0 fold, respectively.

The subject of assay [1] is oligoadenylate-synthase (OAS) family member protein 69 (p69-OAS). The assay can be described thus: p69-OAS mRNA expression in MCF-7 cells (microarray, Northern blot, RT-PCR). The assay is classed as cell-based, human. Here is the method: as §1, §2
Assay [2] relates to interferon-inducible protein 56 (p56). The assay can be described thus: p56 mRNA expression in DIM-treated MCF-7 cells (cDNA microarray, Northern blot, quantitative RT-PCR). It is filed as cell-based, human. How it is done:
as §1, §2

The subject of a further assay is GAS element. Kind of assay: Electrophoretic gel mobility shift assay, STAT1 binding to GAS element. It is filed as cell-based, human. To be noted: DIM pretreatment for various times, IFNγ 30 min. Here is the method:
An electrophoretic gel mobility shift assay was used to verify that the phosphorylated STAT1 was effectively activated to a dimer that could bind to the GAS element. The ^32P-labeled DNA probe containing a GAS sequence was incubated with nuclear extracts from cells pretreated with DIM for various times as indicated, and with IFNγ for 30 min. […] When samples were incubated with an antibody specific to STAT1, the band was super-shifted, confirming the identity of the protein binding to the labeled GAS probe.

The test system of the next assay is MCF-7 cells. The assay can be described thus: Flow cytometry of cell cycling (G1 phase). It is filed as cell-based, human. The note with it: up to 3 days; control approximately 50% in G1. An excerpt: Flow cytometry was used to determine the effects of DIM and IFNγ on cell cycling. […] In control groups approximately 50% of the cells were in G1. Treatment with IFNγ alone caused a small progressive increase in G1 blocked cells of up to 10% above the DMSO control, after 3 days.
(In general: A flow cytometer gives signals particle by particle.)

The test system of the next assay is TNF-α. Kind of assay: Serum TNF-α by ELISA in mice after DIM. The assay is classed as in vivo. The note with it: 30 μg/kg DIM orally. Here is the method:
We firstly investigated the effect of unsubstituted DIM on the production of IL-6, G-CSF, IL-12, TNF-α and IFNγ. A groups of 3 mice was given 30 μg/kg of unsubstituted DIM orally and then sacrificed at 1, 3, 5, 8, and 24 h after drug challenge. Serum was collected, pooled, and assayed for IL-6, G-CSF, IL-12 and TNF-α by ELISA. […] DIM produced an increase in circulating levels of G-CSF and TNF-α with the 3 h time point being maximal. […] DIM also stimulated IL-12 and kinetics were slightly different since the increased levels were sustained for at least 24 h.

Assay [3] concerns DMBA-induced mammary tumorigenesis. To be noted: repeated oral administrations during promotion stage, rodents; cited from earlier work.

Where only a bound is given, the exact number is not on record here.

Turning to `c1ccc2c(Cc3c[nH]c4ccccc34)c[nH]c2c1` [DIM, 3,3′-Diindolylmethane], in the assay on IFNγ receptor (IFNGR1) (MCF-7 cells treated with DIM), the “Maximum induction of IFNGR1 mRNA” value was found to be 3.8 fold and the “Treatment time at which maximum IFNGR-1 induction was reached” value is on record as 48 h. Moreover, in the assay with IFNγ receptor (IFNGR1) (MCF-7 cells, 48 h), the “IFNGR1 mRNA level at 48 h of treatment” value is on record as “remained elevated”. Besides, in assay [1] (MCF-7 cells treated with DIM), the “Maximum induction of p69-OAS mRNA” value is on record as 3.2 fold and the “Treatment time at which p69-OAS expression was fully induced” value is 6 h. For the same molecule, the “p69-OAS mRNA level at 48 h of treatment” value in assay [1] (MCF-7 cells, 48 h) is on record as “remained elevated”. Besides, in assay [2] (MCF-7 cells treated with DIM), the “Maximum induction of p56 mRNA” value worked out at 4.0 fold and the “Treatment time at which p56 expression was fully induced” value is on record as 6 h. The “p56 mRNA level following 48 h of DIM treatment” value in assay [2] (MCF-7 cells, 48 h) is “returned to near control levels”. Besides, the “Band-shift of 32P-labeled GAS probe with nuclear extracts” value in the assay on GAS element was “did not produce a shifted band”. In the assay with MCF-7 cells, the “Increase in G1 blocked cells above the DMSO control” value is “up to 30%”. Also, the “Time point of maximal circulating TNF-α” value in the assay on TNF-α is 3 h. In addition, the “Inhibition of tumor growth” value in assay [3] was ≤ 95%.
